Columns and labels:
[1] = system: FCA-induced inflammation of the rat hind paw; assay: Freund's complete adjuvant (FCA) model of inflammatory pain, reversal of hyperalgesia; type: in vivo; settings: rats
Protocol: Test Animals: Each experiment uses rats weighing between 200-260 g at the start of the experiment. The rats are group-housed and have free access to food and water at all times, except prior to oral administration of a compound of Formula I when food is removed for 16 hours before dosing. A control group acts as a comparison to rats treated with a compound of Formula I. The control group is administered the carrier for the compound of Formula I. The volume of carrier administered to the control group is the same as the volume of carrier and compound of Formula I administered to the test group.
Inflammatory Pain: To assess the actions of the compounds of Formula I on the treatment or prevention of inflammatory pain the Freund's complete adjuvant (“FCA”) model of inflammatory pain is used. […] 24 hour post injection, the animal is assessed for response to noxious mechanical stimuli by determining the PWT, or to noxious thermal stimuli by determining the PWL, as described below. […] Responses to noxious mechanical or thermal stimuli are then determined 1, 3, 5 and 24 hours post administration. […]
Response to Mechanical Stimuli as an Assessment of Mechanical Hyperalgesia: The paw pressure assay can be used to assess mechanical hyperalgesia. For this assay, hind paw withdrawal thresholds (PWT) to a noxious mechanical stimulus are determined using an analgesymeter (Model 7200, commercially available from Ugo Basile of Italy) as described in C. […] PWT is determined once for each rat at each time point and only the affected (ipsilateral) paw is tested.
Response to Thermal Stimuli as an Assessment of Thermal Hyperalgesia: The plantar test can be used to assess thermal hyperalgesia. For this test, hind paw withdrawal latencies (PWL) to a noxious thermal stimulus are determined using a plantar test apparatus (commercially available from Ugo Basile of Italy) following the technique described by K. Hargreaves et al., “A New and Sensitive Method for Measuring Thermal Nociception in Cutaneous Hyperalgesia,” Pain 32(1):77-88 (1988). […] Three latencies are determined at each time point and averaged. […]

human recombinant TRPV1 = human recombinant TRPV1 (Homo sapiens (Human), UniProt Q8NER1); assay: TRPV1 Capsaicin-Based Assay (Protocol 2, TRPV1/CHO cells, Fluo-4, FLIPR); type: cell-based; settings: TRPV1/CHO cells, capsaicin 100 nM final; read-out: IC50 value by the Capsaicin-Based Assay
Summary of the method: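 CHO cells stably expressing human TRPV1 were loaded with 3 μM Fluo-4 for 1 h, then given compounds in HBSS/1 mM CaCl2/20 mM HEPES pH 7.4 with 1% DMSO for 2 min before 100 nM capsaicin (final). FLIPR fluorescence recorded over the full course; curves fitted.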

[2] = Measurement of body temperature increase (rectal body temperature); type: in vivo, rat; settings: Crl/SD rats, oral, 1 mg/mL at 10 mL/kg

human recombinant TRPV1, sequence (Q8NER1 whole entry): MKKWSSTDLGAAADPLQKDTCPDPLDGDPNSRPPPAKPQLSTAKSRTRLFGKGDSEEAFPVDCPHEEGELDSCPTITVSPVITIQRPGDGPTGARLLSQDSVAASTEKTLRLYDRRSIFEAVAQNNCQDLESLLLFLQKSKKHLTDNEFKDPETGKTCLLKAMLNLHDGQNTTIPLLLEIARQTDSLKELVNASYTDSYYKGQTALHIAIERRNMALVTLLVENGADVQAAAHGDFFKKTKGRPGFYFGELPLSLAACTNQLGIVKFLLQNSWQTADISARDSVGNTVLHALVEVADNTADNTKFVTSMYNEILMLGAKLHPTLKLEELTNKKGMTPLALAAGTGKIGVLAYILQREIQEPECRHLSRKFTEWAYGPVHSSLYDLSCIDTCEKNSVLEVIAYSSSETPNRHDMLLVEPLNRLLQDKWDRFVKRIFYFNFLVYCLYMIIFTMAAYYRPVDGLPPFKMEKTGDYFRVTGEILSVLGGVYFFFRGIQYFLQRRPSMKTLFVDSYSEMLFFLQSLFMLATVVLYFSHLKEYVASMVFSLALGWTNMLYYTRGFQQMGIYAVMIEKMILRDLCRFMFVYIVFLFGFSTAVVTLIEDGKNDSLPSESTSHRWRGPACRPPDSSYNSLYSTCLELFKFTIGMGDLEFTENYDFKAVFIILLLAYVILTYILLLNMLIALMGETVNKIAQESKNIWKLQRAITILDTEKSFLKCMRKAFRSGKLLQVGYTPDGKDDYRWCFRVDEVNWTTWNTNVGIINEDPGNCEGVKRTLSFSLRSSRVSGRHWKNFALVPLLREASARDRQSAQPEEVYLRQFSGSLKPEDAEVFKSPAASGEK

With `Cc1cc(NC(=O)N2CCC(F)(c3ncc(C[C@H](O)CO)cc3F)CC2)ccc1C(F)(F)F` [ACQ, (S)-4-(5-(2,3-dihydroxypropyl)-3-fluoropyridin-2-yl)-4-fluoro-N-(3-methyl-4-(trifluoromethyl)phenyl)piperidine-1-carboxamide] the “Percentage reversal of hyperalgesia, % Reversal (3 mg/Kg, 3 hours post administration)” value [1] was 41.7%, the IC50 (human recombinant TRPV1) was ≤ 50 nM and the Body temperature increase [2] was “less than 0.5 °C”.

Source: patent US8921373B2, “Compounds having TRPV1 antagonistic activity and uses thereof” (Shionogi & Co., Ltd., priority 2010, dated 2014)
